The IC50 is the midpoint of a concentration-inhibition curve. Low values mean inhibition by little substance, high ones a need for much substance.

For one assay, the target named is human DHODH (Homo sapiens (Human), UniProt Q02127). Nature of the assay: DHODH Enzymatic Assay. The format is biochemical. The following applies: purified human DHODH, DCIP absorbance, end-point mode. The protocol:
To detect DHODH enzyme activities, dichloroindophenol (DCIP) is added as the final electron acceptor in the assay. DCIP can accept electrons from the reduced coenzyme Q generated in the assay, or from dihydroorotate (DHO) via FMN by binding presumably to the ubiquinone pocket. […] The assay buffer contained […], pH 7.5, 150 mM NaCl, 0.5 mM EDTA, and 0.1% Triton X-100 in MilliQ water. Substrate consisting of 20 mM DHO, 5 mM CoQ6, and 1 mM DCIP in assay buffer, initiates the reaction. […] Absorbance measurements were obtained using the BMG Phera Star plate-reading spectrophotomer. Purified human DHODH was purchased from Proteros (cat. No. PR-0044). Chemicals were purchased from Sigma-Aldrich, Teknova, and Avanti Polar Lipids. Liquid handling was performed using Labcyte Echo and Formulatrix Tempest.

The test system of another assay is MOLM-13 cells. The experiment in a line: MOLM-13 Cellular Assay. Particulars: Homo sapiens, 72 hours, cell viability by CellTiter-Glo. It counts as cell-based. The protocol: MOLM-13 cells were obtained from DSMZ and were maintained in RPMI 1640+Glutamax+25 mM HEPES (Invitrogen, catalog number 72400) supplemented with 10% heat inactivated fetal bovine serum (FBS; Invitrogen, catalog number 16140). The day prior to assay set-up, cells were pelleted, resuspended in fresh media, counted, and cells were plated at 0.4×10^6 cell/mL in a T150 flask. On the day of the assay, cells were pelleted, resuspend in fresh media, counted, and seeded at 5,000 cells/well in white opaque 96-well tissue culture treated microplates (Perkin Elmer, catalog number 6005680). Cells were exposed to different concentrations of test compounds at 37° C., 5% CO2 for 72 hours immediately after seeding. Cell viability was acquired on a Perkin Elmer Envision 2104 multilabel reader using the CellTiter-Glo assay (Promega) according to the manufacturer's instructions.
On the technique in general: Cellular ATP, detected with luciferase, serves as a proxy for viable cell number.

Sequence of human DHODH (Q02127 whole entry): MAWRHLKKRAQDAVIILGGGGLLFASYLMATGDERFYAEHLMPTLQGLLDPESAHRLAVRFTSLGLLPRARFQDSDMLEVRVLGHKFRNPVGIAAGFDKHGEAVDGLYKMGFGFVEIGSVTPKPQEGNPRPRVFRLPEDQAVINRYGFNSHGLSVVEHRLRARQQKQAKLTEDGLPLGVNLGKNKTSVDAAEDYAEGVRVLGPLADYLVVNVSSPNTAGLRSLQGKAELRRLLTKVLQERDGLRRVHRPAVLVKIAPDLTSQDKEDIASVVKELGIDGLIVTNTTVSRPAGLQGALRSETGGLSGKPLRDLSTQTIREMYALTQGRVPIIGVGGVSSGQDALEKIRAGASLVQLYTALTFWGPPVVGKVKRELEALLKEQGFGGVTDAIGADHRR

With `CCn1c(CO)nn(-c2cc3c(cc2F)OC(c2c(F)cccc2Cl)CN3C(C)C)c1=O` (stereo not shown) [Example 6, 1-(2-(2-Chloro-6-fluorophenyl)-7-fluoro-4-isopropyl-3,4-dihydro-2H-benzo[b][1,4]oxazin-6-yl)-4-ethyl-3-(hydroxymethyl)-1H-1,2,4-triazol-5(4H)-one], the IC50 was 0.504 nM at human DHODH and ~0.3 nM with MOLM-13 cells.
For the compound `CCn1c(CO)nn(-c2cc3c(cc2F)C(C)(O)C(c2ccccc2C)CN3C(C)C)c1=O` (racemic) [Example 20, Racemic 4-Ethyl-2-(6-fluoro-4-hydroxy-1-isopropyl-4-methyl-3-(o-tolyl)-1,2,3,4-tetrahydroquinolin-7-yl)-5-(hydroxymethyl)-2,4-dihydro-3H-1,2,4-triazol-3-one], the IC50 against human DHODH stood at 0.607 nM; in the assay with MOLM-13 cells, 0.5 nM.

For the origin of these results see patent publication US20240166622A1, “FLUORINATED QUINOLINE, QUINOXALINE AND BENZO[B][1,4]OXAZINE DERIVATIVES AS DIHYDROOROTATE DEHYDROGENASE (DHODH) INHIBITORS FOR THE TREATMENT OF CANCER, AUTOIMMUNE AND INFLAMMATORY DISEASES” (Janssen Biotech, Inc., priority 2019, published 2024).
